# Assay results taken from patent US20090156501A1, “IDENTIFICATION OF LIGANDS BY SELECTIVE AMPLIFICATION OF CELLS TRANSFECTED WITH RECEPTORS” (ACADIA PHARMACEUTICALS, INC., priority 1999, published 2009).
# Like-named read-outs stand apart in the source and are kept apart here.
# What was measured:
# Type in all cases: cell-based
# 5-HT2A receptor = target: T1, 5-HT2A receptor (Homo sapiens, UniProt P28223); test: R-SAT functional assay of the 5-HT2A receptor in NIH 3T3 cells (agonism and inverse agonism); conditions: for 5-HT2A Receptor Negative Log EC50: Table 6, inverse agonism, 50 ng per well receptor DNA; for Negative Log EC50, inverse agonists at the 5-HT2A receptor: Table 5, inhibition of constitutive activity, mean of three dose response experiments ± standard error
# T1 construct: expressed in transfected cells; host or cells: NIH 3T3 (mouse fibroblasts), transient transfection, PSI expression vector
# 5-HT2C receptor = target: T2, 5-HT2C receptor (Homo sapiens, UniProt P28335); test: R-SAT functional assay of the 5-HT2C receptor (inverse agonism); conditions: Table 6, 50 ng per well receptor DNA
# T2 construct: expressed in transfected cells; PSI mammalian expression vector
# T2 sequence (P28335 33-458): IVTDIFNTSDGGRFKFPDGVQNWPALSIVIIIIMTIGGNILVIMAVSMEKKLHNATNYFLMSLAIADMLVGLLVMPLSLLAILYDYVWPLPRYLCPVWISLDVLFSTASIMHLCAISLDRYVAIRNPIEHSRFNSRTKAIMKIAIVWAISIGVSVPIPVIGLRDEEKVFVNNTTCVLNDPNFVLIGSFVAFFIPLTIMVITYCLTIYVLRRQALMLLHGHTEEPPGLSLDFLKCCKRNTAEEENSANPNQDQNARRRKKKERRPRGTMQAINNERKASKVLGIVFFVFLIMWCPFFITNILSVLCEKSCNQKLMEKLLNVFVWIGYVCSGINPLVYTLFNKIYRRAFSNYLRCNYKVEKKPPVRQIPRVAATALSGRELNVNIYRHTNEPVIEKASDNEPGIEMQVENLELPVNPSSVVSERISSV
# [1] = target: T3, α2-C4 adrenergic receptor (Homo sapiens, UniProt P18825); test: Single Receptor Format amplification assay, alpha 2 C4; conditions: for EC50: Table 3, 8-10 concentrations, 3-4 replicates, read-out: Agonist EC50 nM, α2-C4; for Max Response, α2-C4: relative to other ligands at the given receptor
# T3 construct: expressed in transfected cells; host or cells: NIH 3T3
# T3 sequence (P18825 1-462): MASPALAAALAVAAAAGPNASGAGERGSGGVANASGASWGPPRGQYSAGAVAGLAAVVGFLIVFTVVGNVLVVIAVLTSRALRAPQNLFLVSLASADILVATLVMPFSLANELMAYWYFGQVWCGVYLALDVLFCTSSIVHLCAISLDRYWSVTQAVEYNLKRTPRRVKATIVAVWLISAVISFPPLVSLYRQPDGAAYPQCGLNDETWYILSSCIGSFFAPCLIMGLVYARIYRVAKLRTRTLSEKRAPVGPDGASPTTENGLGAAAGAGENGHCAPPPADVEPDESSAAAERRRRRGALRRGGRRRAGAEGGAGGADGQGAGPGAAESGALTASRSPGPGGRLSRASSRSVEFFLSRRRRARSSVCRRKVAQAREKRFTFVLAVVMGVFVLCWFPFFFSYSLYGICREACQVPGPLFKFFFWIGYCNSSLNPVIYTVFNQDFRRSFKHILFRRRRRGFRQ
# [2] = target: T4, α2-C2 adrenergic receptor (Homo sapiens, UniProt P18089); test: Single Receptor Format amplification assay, alpha 2 C2; conditions: for EC50: Table 3, 8-10 concentrations, 3-4 replicates, read-out: Agonist EC50 nM, α2-C2
# T4 construct: expressed in transfected cells; host or cells: NIH 3T3
# T4 sequence (P18089 1-450): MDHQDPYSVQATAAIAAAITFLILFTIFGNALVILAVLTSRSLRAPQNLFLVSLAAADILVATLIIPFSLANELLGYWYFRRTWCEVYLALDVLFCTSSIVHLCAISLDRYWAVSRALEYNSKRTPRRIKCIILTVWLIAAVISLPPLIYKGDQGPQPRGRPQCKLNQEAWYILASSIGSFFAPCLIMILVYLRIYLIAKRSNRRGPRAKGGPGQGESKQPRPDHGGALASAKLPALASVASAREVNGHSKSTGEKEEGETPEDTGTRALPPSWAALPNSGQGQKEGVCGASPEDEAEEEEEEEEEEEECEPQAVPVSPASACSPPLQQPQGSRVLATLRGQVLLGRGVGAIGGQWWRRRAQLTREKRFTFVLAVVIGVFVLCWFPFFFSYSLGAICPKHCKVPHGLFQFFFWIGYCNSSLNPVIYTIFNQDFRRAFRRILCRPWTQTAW
# [3] = target: T5, α2-C10 adrenergic receptor (Homo sapiens, UniProt P08913); test: Single Receptor Format amplification assay, alpha 2 C10; conditions: for EC50: Table 3, 8-10 concentrations, 3-4 replicates, read-out: Agonist EC50 nM, α2-C10; for Max Response, α2-C10: relative to other ligands at the given receptor
# T5 construct: expressed in transfected cells; host or cells: NIH 3T3
# T5 sequence (P08913 1-465): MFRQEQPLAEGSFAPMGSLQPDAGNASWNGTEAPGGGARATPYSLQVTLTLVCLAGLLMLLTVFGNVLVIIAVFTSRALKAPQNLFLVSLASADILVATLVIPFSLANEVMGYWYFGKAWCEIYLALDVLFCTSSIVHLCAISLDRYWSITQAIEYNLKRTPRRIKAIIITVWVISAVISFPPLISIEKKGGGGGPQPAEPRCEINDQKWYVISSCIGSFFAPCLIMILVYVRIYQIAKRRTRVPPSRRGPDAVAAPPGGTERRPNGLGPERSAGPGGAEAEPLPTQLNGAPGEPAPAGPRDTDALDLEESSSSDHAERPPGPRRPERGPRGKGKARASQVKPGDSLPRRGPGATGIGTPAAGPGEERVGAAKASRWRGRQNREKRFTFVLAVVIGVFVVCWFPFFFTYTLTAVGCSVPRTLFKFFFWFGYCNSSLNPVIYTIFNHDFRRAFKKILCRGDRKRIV
# [4] = compounds at 300-500 nM, 50 ng/well receptor DNA, inhibition from basal, referenced to ritanserin (90-100%), mean of duplicates
# [5] = relative to other ligands at the given receptor
# [6] = compounds at 300-500 nM, 50 ng/well receptor DNA, […], mean of duplicates
# T1 sequence (P28223 whole entry): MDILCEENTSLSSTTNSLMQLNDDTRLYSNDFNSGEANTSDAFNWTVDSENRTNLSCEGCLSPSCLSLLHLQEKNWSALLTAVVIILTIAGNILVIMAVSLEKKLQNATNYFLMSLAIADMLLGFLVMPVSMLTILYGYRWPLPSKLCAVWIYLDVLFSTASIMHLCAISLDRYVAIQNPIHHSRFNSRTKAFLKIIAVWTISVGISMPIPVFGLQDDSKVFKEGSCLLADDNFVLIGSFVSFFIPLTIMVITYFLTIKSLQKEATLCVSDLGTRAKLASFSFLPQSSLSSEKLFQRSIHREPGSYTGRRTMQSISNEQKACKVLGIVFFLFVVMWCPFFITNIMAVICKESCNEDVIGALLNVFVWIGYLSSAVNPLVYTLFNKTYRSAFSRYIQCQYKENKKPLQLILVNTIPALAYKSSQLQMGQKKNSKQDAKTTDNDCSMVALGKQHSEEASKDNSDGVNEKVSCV
compound,measurement,setting,value
N[C@@H](Cc1c[nH]c2ccc(O)cc12)C(=O)O [5-hydroxy-Ltryptophan],"% INHIBITION, screen for inverse agonism at 5-HT2A receptors",5-HT2A receptor; [4],53%
CCNC(=O)N1CCN(CCCC(c2ccc(F)cc2)c2ccc(F)cc2)CC1 [Amperozide],5-HT2C Receptor Negative Log EC50,5-HT2C receptor,No Intrinsic
C=CCN1CCc2nc(N)sc2CC1 [BHT 920],EC50,[1],> 10000 nM
same,"Max Response, α2-C4",[1],+++
same,"Max Response, α2-C2",[2]; [5],+++
same,EC50,[3],> 10000 nM
same,"Max Response, α2-C10",[3],+++
CCN1CCc2nc(N)oc2CC1 [BHT 933],EC50,[2],> 10000 nM
same,"Max Response, α2-C2",[2]; [5],+++
same,EC50,[3],> 10000 nM
same,"Max Response, α2-C10",[3],++
O=C(CCCN1CCC(O)(c2ccc(Br)cc2)CC1)c1ccc(F)cc1 [Bromperidol],5-HT2C Receptor Negative Log EC50,5-HT2C receptor,No Intrinsic
CN(C)CCCSc1ccccc1NC(=O)/C=C/c1ccccc1 [CINANSERIN],"% INHIBITION, screen for inverse agonism at 5-HT2A receptors",5-HT2A receptor; [4],75%
CCN(CC)CCCN1c2ccccc2Sc2ccc(Cl)cc21 [Chlorproethizene],5-HT2C Receptor Negative Log EC50,5-HT2C receptor,<5.0
same,5-HT2A Receptor Negative Log EC50,5-HT2A receptor,7.70 ± 0.33
OCCN1CCN(CC/C=C2/c3ccccc3Sc3ccc(C(F)(F)F)cc32)CC1 [Cis-Flupentixol],5-HT2C Receptor Negative Log EC50,5-HT2C receptor,No Intrinsic
same,"Negative Log EC50, inverse agonists at the 5-HT2A receptor",5-HT2A receptor,8.04 ± 0.10 molar
same,5-HT2A Receptor Negative Log EC50,5-HT2A receptor,8.04 ± 0.10
same,"% INHIBITION, screen for inverse agonism at 5-HT2A receptors",5-HT2A receptor; [6],45%
Clc1cccc(Cl)c1N=C1NCCN1 [Clonidine],"Max Response, α2-C4",[1],++
Cc1cccc([C@H](C)c2cnc[nH]2)c1C [Dexmedetomidine],"Max Response, α2-C4",[1],±
same,"Max Response, α2-C2",[2],2/+++
same,"Max Response, α2-C10",[3],±
O=C1NCN(c2ccccc2)C12CCN(CCCC(c1ccc(F)cc1)c1ccc(F)cc1)CC2 [Fluspirilene],"% INHIBITION, screen for inverse agonism at 5-HT2A receptors",5-HT2A receptor; [4],57%
N=C(N)NC(=O)Cc1c(Cl)cccc1Cl [Guanfacine],"Max Response, α2-C4",[1],±
CC(C)NCC(O)c1ccc(O)c(O)c1 (stereo not shown) [Isoproterenol],"Max Response, α2-C4",[1],+
O=C(c1ccc(F)cc1)C1CCN(CCn2c(=O)[nH]c3ccccc3c2=O)CC1 [KETANSERIN],"% INHIBITION, screen for inverse agonism at 5-HT2A receptors",5-HT2A receptor; [4],82%
CN1CCN(C2=Nc3ccccc3Oc3ccc(Cl)cc32)CC1 [Loxapine],"% INHIBITION, screen for inverse agonism at 5-HT2A receptors",5-HT2A receptor; [4],77%
CSc1ccc2c(c1)C(N1CCN(C)CC1)Cc1ccccc1S2 (stereo not shown) [METHIOTHEPIN],"% INHIBITION, screen for inverse agonism at 5-HT2A receptors",5-HT2A receptor,79%
"NCCC1CCCC(CCN)N1 (stereo not shown) [Mdl 26,630 3HCl]","% INHIBITION, screen for inverse agonism at 5-HT2A receptors",5-HT2A receptor; [4],75%
CC1CCN(CCCC(=O)c2ccc(F)cc2)CC1 [Melperone],5-HT2C Receptor Negative Log EC50,5-HT2C receptor,No Intrinsic
CN1CCCCC1CCN1c2ccccc2Sc2ccc([S+](C)[O-])cc21 (stereo not shown) [Mesioridazine],5-HT2C Receptor Negative Log EC50,5-HT2C receptor,No Intrinsic
same,5-HT2A Receptor Negative Log EC50,5-HT2A receptor,7.00 ± 0.30
Cc1ccc(C2(O)CCN(CCCC(=O)c3ccc(F)cc3)CC2)cc1 [Moperone],5-HT2C Receptor Negative Log EC50,5-HT2C receptor,No Intrinsic
NC[C@H](O)c1ccc(O)c(O)c1 [Norepinephrine],EC50,[1],2 nM
same,"Max Response, α2-C4",[1],+
same,EC50,[2],7200 nM
same,"Max Response, α2-C2",[2]; [5],++
CN1CCN(C2Cc3ccccc3Sc3ccc(Cl)cc32)CC1.O=C(O)/C=C\C(=O)O (stereo not shown) [Octoclothepin],5-HT2A Receptor Negative Log EC50,5-HT2A receptor,9.74 ± 0.98
same,"% INHIBITION, screen for inverse agonism at 5-HT2A receptors",5-HT2A receptor; [6],76%
Cc1cc(C(C)(C)C)c(O)c(C)c1CC1=NCCN1 [Oxymetazoline],"Max Response, α2-C4",[1],+
Cc1nc2ccccn2c(=O)c1CCN1CCC(C(=O)c2ccc(F)cc2)CC1 [PIRENPIRONE],"% INHIBITION, screen for inverse agonism at 5-HT2A receptors",5-HT2A receptor; [4],92%
COc1cc2nc(N3CCN(C(=O)c4ccco4)CC3)nc(N)c2cc1OC [Prazocin],"Max Response, α2-C4",[1],++
same,"Max Response, α2-C10",[3],±
CN(C)CCCN1c2ccccc2Sc2ccccc21 [Promazine],5-HT2C Receptor Negative Log EC50,5-HT2C receptor,Agonist
CN(C)CCCN1c2ccccc2Sc2cccnc21 [Prothypendyl],5-HT2C Receptor Negative Log EC50,5-HT2C receptor,Agonist
same,5-HT2A Receptor Negative Log EC50,5-HT2A receptor,6.60 ± 0.44
C1COC(NC(C2CC2)C2CC2)=N1 [Rilmenidine],EC50,[1],480 nM
same,"Max Response, α2-C4",[1],+
same,"Max Response, α2-C2",[2]; [5],±
same,"Max Response, α2-C10",[3],±
O=C(CCCN1CCC2(CC1)C(=O)NCN2c1ccccc1)c1ccc(F)cc1 [Spiperone],5-HT2C Receptor Negative Log EC50,5-HT2C receptor,No Intrinsic
same,"% INHIBITION, screen for inverse agonism at 5-HT2A receptors",5-HT2A receptor; [4],82%
CCN1CCCC1CNC(=O)c1cc(S(N)(=O)=O)ccc1OC (stereo not shown) [Sulpiride],5-HT2C Receptor Negative Log EC50,5-HT2C receptor,No Intrinsic
CN1CCN(CC/C=C2/c3ccccc3Sc3ccc(S(=O)(=O)N(C)C)cc32)CC1 [Thiothixene],5-HT2C Receptor Negative Log EC50,5-HT2C receptor,No Intrinsic
OCCN1CCN(CC/C=C2\c3ccccc3Sc3ccc(C(F)(F)F)cc32)CC1 [Trans-Flupentixol],5-HT2C Receptor Negative Log EC50,5-HT2C receptor,5.55 ± 0.37
same,"Negative Log EC50, inverse agonists at the 5-HT2A receptor",5-HT2A receptor,6.77 ± 0.21 molar
same,5-HT2A Receptor Negative Log EC50,5-HT2A receptor,6.77 ± 0.21
O=C(CCCN1CCC(O)(c2cccc(C(F)(F)F)c2)CC1)c1ccc(F)cc1 [Triflouperidol],"% INHIBITION, screen for inverse agonism at 5-HT2A receptors",5-HT2A receptor,96%
Nc1cc(Cl)c(N=C2NCCN2)c(Cl)c1 [p-NH2-Clonidine],"Max Response, α2-C4",[1],±
same,"Max Response, α2-C10",[3],±
Cc1nc2sccn2c(=O)c1CCN1CCC(=C(c2ccc(F)cc2)c2ccc(F)cc2)CC1 [ritanserin],"% INHIBITION, screen for inverse agonism at 5-HT2A receptors",5-HT2A receptor; [4],90%
same,intrinsic activity at the 5-HT2A receptor (inverse agonism),5-HT2A receptor; receptor signaling relative to baseline (no drug),inverse agonist
JL-18,5-HT2C Receptor Negative Log EC50,5-HT2C receptor,6.09 ± 0.45
